The results in this text go back to ChEMBL document CHEMBL3046351, “Insecticidal, antifeedant and antifungal activities of two glucosides isolated from the seeds of Simmondsia chinensis” (Ind Crops Prod, 2007).

Values after ≈ are worked out from the molar mass of the structure shown.

For test [1], the system named is Rhizoctonia solani. The test can be described thus: Antifungal activity against Rhizoctonia solani. The test is classed as functional, organism-based.
Test [2] relates to Spodoptera littoralis. Nature of the test: Antifeedant activity against third instar larvae of Spodoptera littoralis fed on compound-treated cotton leaf disks assessed as antifeedant index at 100 ug/ml measured after 24 hr by no-choice leaf disc method. The test is classed as functional.
The test system of test [3] is Spodoptera littoralis. The test can be described thus: Antifeedant activity against third instar larvae of Spodoptera littoralis fed on compound-treated cotton leaf disks assessed as antifeedant index at 50 ug/ml measured after 24 hr by no-choice leaf disc method. The test is classed as functional.
The test system of test [4] is Spodoptera littoralis. The test can be described thus: Antifeedant activity against third instar larvae of Spodoptera littoralis fed on compound-treated cotton leaf disks assessed as antifeedant index at 10 ug/ml measured after 24 hr by no-choice leaf disc method. It counts as functional.
Test [5] deals with Spodoptera littoralis. Nature of the test: Insecticidal activity against third instar larvae of topically treated Spodoptera littoralis assessed per larva after 24 hr. It counts as functional.
Another test relates to Fusarium oxysporum. The test can be described thus: Antifungal activity against Fusarium oxysporum by radial growth inhibition method. It counts as functional, organism-based.
Test [6] relates to Globisporangium debaryanum. Nature of the test: Antifungal activity against Pythium debaryanum by radial growth inhibition method. It counts as functional, organism-based.
In a further test the test system is Botrytis fabae. The test can be described thus: Antifungal activity against Botrytis fabae by radial growth inhibition method. The test is classed as functional, organism-based.
Test [7] concerns Rhizoctonia solani. The test can be described thus: Antifungal activity against Rhizoctonia solani by radial growth inhibition method. The test is classed as functional, organism-based.
The subject of test [8] is Spodoptera littoralis. Nature of the test: Antifeedant activity against third instar larvae of Spodoptera littoralis fed on compound-treated castor bean leaf disks measured after 24 hr by no-choice leaf disc method.
In test [9] the test system is Spodoptera littoralis. Nature of the test: Antifeedant activity against third instar larvae of Spodoptera littoralis fed on compound-treated castor bean leaf disks assessed as antifeedant index at 500 ug/ml measured after 24 hr by no-choice leaf disc method.
Test [10] deals with Spodoptera littoralis. The test can be described thus: Antifeedant activity against third instar larvae of Spodoptera littoralis fed on compound-treated castor bean leaf disks assessed as antifeedant index at 1000 ug/ml measured after 24 hr by no-choice leaf disc method.

As for `O=C/C=C/c1ccccc1` [CINNAMALDEHYDE], the EC50 in the test on Rhizoctonia solani [1] stood at 169 µg/mL (≈ 1280 µM).
Turning to `C=C(C)C1CC=C(C)[C@@H](O)C1` (stereo partly drawn) [CARVEOL], the EC50 in the test on Rhizoctonia solani [1] was found to be 92 µg/mL (≈ 604 µM).
In the test on Rhizoctonia solani [1], `CC12CCC(CC1=O)C2(C)C` (stereo not drawn) [CAMPHOR] displayed an EC50 of 488 µg/mL (≈ 3210 µM).
In the test on Rhizoctonia solani [1], `CC1(C)C2CCC1(C)C(O)C2` (stereo not drawn) [BORNEOL] had an EC50 of 447 µg/mL (≈ 2900 µM).
`COc1cc(/C=C\C(=O)O[C@@H]2[C@@H](O[C@@H]3C[C@H](OC)[C@H](OC)[C@@H](O)/C3=C/C#N)O[C@@H](CO)[C@H](O)[C@H]2O)ccc1O` [SIMMONDSIN 2'-FERULATE]: the AFI in the test with Spodoptera littoralis [2] was determined as 60.9%; with Spodoptera littoralis [3], 44.2%; in the test on Spodoptera littoralis [4] it was 32.3%; with Spodoptera littoralis [9], 76.9%; in the test on Spodoptera littoralis [10] it was 90%. This compound also displayed an LD50 with Spodoptera littoralis [5] of 2.58 µg. Besides, the EC50 in the test with Fusarium oxysporum turned out to be 293 µg/mL (≈ 532 µM); in test [6] it was 154 µg/mL (≈ 279 µM); with Botrytis fabae, 146 µg/mL (≈ 265 µM); with Rhizoctonia solani [7] it was 146 µg/mL (≈ 265 µM). Besides, the Activity result in the test with Spodoptera littoralis [8] was “Dose-dependent effect”.
Consider `COP(=S)(OC)Oc1c(Cl)cc(C)cc1Cl` [TOLCOFOS-METHYL], for which the EC50 amounted to 51.3 µg/mL (≈ 170 µM) in the test on Fusarium oxysporum, 8.9 µg/mL (≈ 29.6 µM) in test [6], 21.9 µg/mL (≈ 72.7 µM) in the test with Botrytis fabae and 5.7 µg/mL (≈ 18.9 µM) with Rhizoctonia solani [7].
For the compound `Cc1ccc(C(C)C)cc1O` [CARVACROL], in the test on Rhizoctonia solani [1], the midpoint of the response, the EC50, lay at 41 µg/mL (≈ 273 µM).
As to `CO[C@H]1[C@@H](OC)C[C@@H](O[C@H]2O[C@@H](CO)[C@H](O)[C@@H](O)[C@@H]2O)/C(=C\C#N)[C@@H]1O` [SIMMONDSIN], the AFI in the test on Spodoptera littoralis [2] is on record as 63.4%; in the test with Spodoptera littoralis [3], 46.2%; with Spodoptera littoralis [4] it was 38.1%; in the test with Spodoptera littoralis [9], 78.9%; in the test on Spodoptera littoralis [10], 92.1%. In the test on Spodoptera littoralis [5], this compound registered an LD50 of 1.49 µg. Further, the EC50 in the test on Fusarium oxysporum was found to be 223 µg/mL (≈ 595 µM); in test [6], 147 µg/mL (≈ 391 µM); in the test with Botrytis fabae, 116 µg/mL (≈ 310 µM); in the test with Rhizoctonia solani [7] it was 129 µg/mL (≈ 344 µM). Further, the Activity result in the test with Spodoptera littoralis [8] was “Dose-dependent effect”.
In turn, `Cc1ccc(C(C)C)c(O)c1` [THYMOL] registered an EC50 in the test with Rhizoctonia solani [1] of 4 µg/mL (≈ 26.6 µM).
`CCOP(=S)(OCC)Oc1nc(Cl)c(Cl)cc1Cl` [CHLORPYRIFOS] returned an LD50 in the test on Spodoptera littoralis [5] of 0.12 µg.

What is called EC50 is the concentration at which the effect is half-maximal. Low values mean higher potency in that assay, high ones lower potency in that assay.
